# Laboratory results from US7745473B2, “Indole derivative for alkylating specific base sequence of DNA and alkylating agent and drug containing the derivative” (Kyoto University, priority 2004, dated 2010).
# “Also recorded” adds a separate entry of the source.
# Key:
# [1] = tested on: long-chain DNA (pUC-II′; SEQ ID NO:7); assay: DNA alkylation of 5′-Texas Red-labeled long-chain DNA, analysed by polyacrylamide gel electrophoresis; type: biochemical; conditions: 23° C., 8 hours, FIG. 1
# Protocol: A 5′-Texas Red-labeled DNA fragment (450 bp) (pUC-II′, SEQ ID NO:7) was prepared by a PCR method using the 5′-Texas Red-labeled 19-base-pair primer (pUC18 forward, 328-345; SEQ ID NO:6) and the 21-base-pair primer (pUC18 reverse, 1861-1881; SEQ ID NO:5), puc18 being used as a template.
# The reaction of compounds (3-1) and (4-1) prepared in the above-described Synthesis Examples with DNA was studied using the long-chain DNA (pUC-II′; SEQ ID NO:7). An alkylation reaction was performed at 23° C. for 8 hours. The sequence alkylated was analyzed by polyacrylic gel electrophoresis for sequence determination. […] This sequence specificity can be explained by a model in which each compound dimerizes in the DNA minor groove to recognize the base sequence.
# Analysis by polyacrylamide gel electrophoresis was performed by the following process: A standard reaction solution containing the 5′-Texas Red-end-labeled DNA fragment (10 nM), DMF (10% (v/v)), and an agent having a concentration described above in a sodium phosphate buffer (5 mM, total volume: 10 μL, pH=7.0) was charged into a microfuge tube (Eppendorf) and left standing at 23° C. for 8 hours. After completion of the reaction, the reaction was quenched by the addition of calf thymus DNA (1 mM, 1 μL). The resulting mixture was shaken at 90° C. for 5 minutes. […]
# [2] = Stability under acidic and alkaline conditions by HPLC; type: physicochemical
# Protocol: Analysis of stability under acidic and alkaline conditions by HPLC was performed by the following process: A reaction solution containing compound (3-1) or (4-1) (100 μM) in a total volume of 10 μL of an aqueous solution of 5% HCl (pH=1, DMF:H2O=1:9) or an aqueous solution of 5% NaHCO3 (pH=9, DMF:H2O=1:9) was charged into a microfuge tube (Eppendorf) and left standing at 37° C. After 30 minutes, 2 hours, and 24 hours, analysis of compound (4-1) (16.8 min) and compound (3-1) (15.1 min) was performed by HPLC (linear gradient of acetonitrile 0-100% in 50 mM ammonium formate, 20 min, flow rate: 1.0 mL/min, 254 nm).
# The Py-Im polyamide containing the indole linker was evaluated for stability by product analysis on HPLC using compounds (4-1) and (3-1). […] Compound (4-1) was converted into compound (3-1) (30 minutes: 50%, 2 hours: 78%) in the alkaline aqueous NaHCO3 solution (pH=9) (left standing at 37° C. for 24 hours). […] Compound (3-1) was readily converted into compound (4-1) (30 minutes: 96%) in the acidic aqueous HCl solution (pH=1) (37° C.).
# [3] = tested on: human ER(+) breast cancer Br-10; assay: Antitumor activity against transplantable human breast cancer in nude mice; type: in vivo, BALB/cA-nu/nu mice; conditions: for T/C (%): treated group / control group ×100
# Protocol: Antitumor activity of compound (4-2) against transplantable human ER(+) breast cancer Br-10 in nude mice was studied. Human ER(+) breast cancer Br-10 was subcutaneously transplanted in dorsal portions of 8-week-old BALB/cA-nu/nu mice through a trocar. Injection of 0.1 mL of EP Hormone Depot was intramuscularly administered in Br-10-transplant mice simultaneously with the transplantation. When the tumor volume reached about 100 mm^3, the mice were divided into 5 mice/group, and then the administration started.
# Compound (4-2) was dissolved in ethanol, diluted with physiological saline, and subcutaneously injected in divided doses into 3 or 4 portions near the tumor once a day and 3 times every 3 days. The dose of compound (4-2) was 50 mg/kg (about 1 mg/mouse) in a volume of 0.05 mL/10 g. Physiological saline was subcutaneously injected in the control group. The length of the major axis (L) and the length of the minor axis (W) were measured every 3 days. The tumor volume was calculated with the following formula: Tumor volume (mm^3)=L(mm)×W^2(mm^2)/2 Comparison of the tumor volume between the compound (4-2) treated group and the control group was performed. […] Values shown in the table show relative estimation of each group when the tumor volume after 1 day in each group is defined as 1.0; and relative estimation calculated with (tumor volume of compound (4-2) treated group: T)/(tumor volume of control group: C)×100%.
# [4] = tested on: long-chain DNA (pUC-II; SEQ ID NO:4, pUC-I′; SEQ ID NO:1); assay: DNA alkylation of 5′-Texas Red-labeled long-chain DNA, analysed by polyacrylamide gel electrophoresis; type: biochemical
# Protocol: A 5′-Texas Red-labeled DNA fragment (450 bp) (pUC-I′, SEQ ID NO:1) was prepared by a PCR method using a 5′-Texas Red-labeled 20-base-pair primer, i.e., 5′-TexRed-[…]-3′ (pUC18 forward, 780-799; SEQ ID NO:2), and a 20-base-pair primer, i.e., 5′-[…]-3′ (pUC18 reverse, 1459-1478; SEQ ID NO:3), puc18 being used as a template. The DNA fragment was in a double-stranded state including a complementary strand (the following fragments were in the same state).
# A 5′-Texas Red-labeled DNA fragment (450 bp) (pUC-II, SEQ ID NO:4) was prepared by a PCR method using a 5′-Texas Red-labeled 21-base-pair primer, i.e., 5′-TexRed-[…]-3′ (pUC18 reverse, 1861-1881; SEQ ID NO:5), and a 19-base-pair primer, i.e., 5-TGTAAAACGACGGCCAGTG-3′ (pUC18 forward, 328-345; SEQ ID NO:6), puc18 being used as a template.
# (§1) Analysis by polyacrylamide gel electrophoresis was performed by the following process: A standard reaction solution containing the 5′-Texas Red-end-labeled DNA fragment (10 nM), DMF (10% (v/v)), and an agent having a concentration described above in a sodium phosphate buffer (5 mM, total volume: 10 μL, pH=7.0) was charged into a microfuge tube (Eppendorf) and left standing at 23° C. for 8 hours. After completion of the reaction, the reaction was quenched by the addition of calf thymus DNA (1 mM, 1 μL). The resulting mixture was shaken at 90° C. for 5 minutes. The DNA obtained by centrifugation under reduced pressure was dissolved by the addition of 8 μl, of loading dye (fushin red solution in DMF), shaken at 94° C. for 20 minutes, and then immediately cooled to 0° C. A 2-μL aliquot was separated electrophoretically on a 6% denaturing polyacrylamide gel using a Hitachi 5500-S DNA sequencer. The following tests were conducted in a similar way.
# The reaction of compounds (3-2) and (3-3) prepared in the above-described Synthesis Examples with DNA was studied using the long-chain DNA (pUC-II; SEQ ID NO:4, pUC-I′; SEQ ID NO:1). An alkylation reaction was performed for 8 hours. The sequence alkylated was analyzed by polyacrylic gel electrophoresis for sequence determination. […] However, the difference in sequence recognition ability was observed. […] From the stand point of the sequence recognition ability, the molecular design of compound (3-2) was excellent.
# [5] = tested on: long-chain DNA (λ-F10906; SEQ ID NO:8); assay: as above; type: biochemical; conditions: λ-F10906, nanomolar concentrations, FIG. 4
# Protocol: A 5′-Texas Red-labeled DNA fragment (537 bp) (λ-F10906; SEQ ID NO:8) was prepared by a PCR method using a 5′-Texas Red-labeled 23-base-pair primer, i.e., 5′-TexRed-[…]-3′ (λ-DNA forward, 10960-10982; SEQ ID NO:9), and a 20-base-pair primer, i.e., 5′-[…]-3′ (λ-DNA reverse, 37007-37026; SEQ ID NO:10), λ-DNA being used as a template.
# as §1
# The reaction of compounds (3-2), (3-4), and (3-5) with DNA was studied using the long-chain DNA (λ-F10906; SEQ ID NO:8). The DNA-alkylating ability of each compound was evaluated.
# [6] = 8 hours, pUC-II and pUC-I′, FIG. 2
smiles,measurement,setting,value
"CC(=O)Nc1cn(C)c(C(=O)Nc2cn(C)c(C(=O)Nc3ccc4[nH]c(C(=O)N5CC(CCl)c6c5cc(O)c5ccccc65)cc4c3)n2)n1 (centres unmarked) [compound (4-1), AcImIm-Indole-seco-CBI]",sequence-specific DNA alkylation,[1],selectively alkylated adenine located at site 1 (5′-CGGCCA-3′) at nanomolar concentrations
same,conversion into compound (3-1),"[2]; alkaline aqueous NaHCO3 solution pH=9, 37° C., 30 minutes",50%
same,conversion into compound (3-1),"[2]; alkaline aqueous NaHCO3 solution pH=9, 37° C., 2 hours",78%
same,formation of other hydrolysates,"[2]; alkaline aqueous NaHCO3 solution pH=9, 37° C., 24 hours",No other hydrolysates were formed
same,hydrolysis in acidic aqueous HCl solution,"[2]; pH=1, 37° C., 24 hours",not hydrolyzed at all
"CC(=O)Nc1cn(C)c(C(=O)Nc2cn(C)c(C(=O)Nc3cc(C(=O)Nc4cc(C(=O)NCCCC(=O)Nc5cn(C)c(C(=O)Nc6cc(C(=O)Nc7ccc8[nH]c(C(=O)N9CC(CCl)c%10c9cc(O)c9ccccc%109)cc8c7)n(C)c6)n5)n(C)c4)n(C)c3)n2)n1 (centres unmarked) [compound (4-2), AcImImPyPy-γ-ImPy-Indole-seco-CBI]",suppression of tumor growth,"[3]; 50 mg/kg subcutaneous near the tumor, Br-10 in nude mice",suppression of tumor growth was observed after the first administration
same,toxicity (weight loss of mice and the like),"[3]; 50 mg/kg subcutaneous, nude mice",toxicity that causes the weight loss of mice and the like was not observed
same,relative tumor volume (after 1 day = 1.0),"[3]; after 1 day, 50 mg/kg subcutaneous near the tumor",1.0
same,T/C (%),[3]; after 1 day,100%
same,relative tumor volume (after 1 day = 1.0),"[3]; after 4 days, 50 mg/kg subcutaneous near the tumor",1.1
same,T/C (%),[3]; after 4 days,78.6%
same,relative tumor volume (after 1 day = 1.0),"[3]; after 7 days, 50 mg/kg subcutaneous near the tumor",1.4
same,T/C (%),[3]; after 7 days,82.4%
same,relative tumor volume (after 1 day = 1.0),"[3]; after 10 days, 50 mg/kg subcutaneous near the tumor",1.4
same,T/C (%),[3]; after 10 days,66.7%
same,relative tumor volume (after 1 day = 1.0),"[3]; after 13 days, 50 mg/kg subcutaneous near the tumor",1.5
same,T/C (%),[3]; after 13 days,55.6%
same,relative tumor volume (after 1 day = 1.0),"[3]; after 16 days, 50 mg/kg subcutaneous near the tumor",2.0
same,T/C (%),[3]; after 16 days,64.5%
"CC(=O)Nc1cn(C)c(C(=O)Nc2cn(C)c(C(=O)Nc3cc(C(=O)NCCCC(=O)Nc4cn(C)c(C(=O)Nc5ccc6[nH]c(C(=O)N7CC8CC89C7=CC(=O)c7ccccc79)cc6c5)n4)n(C)c3)n2)n1 (centres unmarked) [compound (3-3), AcImImPy-γ-Im-Indole-CBI]",alkylated sites (sequence recognition ability),[4]; [6],"alkylation of site 4 (5′-AGCCA-3′), which was a match sequence, was observed; also recorded: single-base-pair mismatch sequences in site 1 (5′-AGCTA-3′), site 2 (5′-AGTCA-3′), site 5 (5′-TACCA-3′), and the like were also observed"
same,efficiency of DNA alkylation,[4]; [6],efficient DNA alkylation comparable with that of a known Py-Im polyamide having a vinyl linker was observed at nanomolar concentrations
same,alkylation of guanine at match site 5′-TGCCG-3′,[4]; pUC-I′ (SEQ ID NO:1),no alkylation of guanine was observed
"CC(=O)Nc1cn(C)c(C(=O)Nc2cn(C)c(C(=O)Nc3cc(C(=O)Nc4cc(C(=O)NCCCC(=O)Nc5cc(C(=O)Nc6cc(C(=O)Nc7ccc8[nH]c(C(=O)N9CC%10CC%10%11C9=CC(=O)c9ccccc9%11)cc8c7)n(C)c6)n(C)c5)n(C)c4)n(C)c3)n2)n1 (centres unmarked) [compound (3-4), AcImImPyPy-γ-PyPy-Indole-CBI]","sequence-specific DNA alkylation, alkylated sites",[5],"Sequence-specific DNA alkylation (site 6: 5′-AATCCA-3′, site 7: 5′-TAACCA-3′)"
"CC(=O)Nc1cn(C)c(C(=O)Nc2cc(C(=O)Nc3cc(C(=O)Nc4cc(C(=O)NCCCC(=O)Nc5cn(C)c(C(=O)Nc6cc(C(=O)Nc7ccc8[nH]c(C(=O)N9CC%10CC%10%11C9=CC(=O)c9ccccc9%11)cc8c7)n(C)c6)n5)n(C)c4)n(C)c3)n(C)c2)n1 (centres unmarked) [compound (3-5), AcImPyPyPy-γ-ImPy-Indole-CBI]","sequence-specific DNA alkylation, alkylated sites",[5],alkylation of an only mismatch sequence (site 1: 5′-TGCTCA-3′) was observed
"CC(=O)Nc1cn(C)c(C(=O)Nc2cn(C)c(C(=O)Nc3ccc4[nH]c(C(=O)N5CC6CC67C5=CC(=O)c5ccccc57)cc4c3)n2)n1 (centres unmarked) [compound (3-1), AcImIm-Indole-CBI]",sequence-specific DNA alkylation,[1],selectively alkylated adenine located at site 1 (5′-CGGCCA-3′) at nanomolar concentrations
same,conversion into compound (4-1),"[2]; acidic aqueous HCl solution pH=1, 37° C., 30 minutes",96%
